Measured values taken from the NIST ThermoML archive (doi:10.1021/je0604232).

Assay: molar heat capacity at constant pressure; xn = mol fraction of the nth substance listed
Details: 101 kPa, Liquid

CC(O)CN (stereo not given) [1-amino-2-propanol] + O
molar heat capacity at constant pressure [J/K/mol]
Details	x1 = 0.1	x1 = 0.2007	x1 = 0.2996	x1 = 0.4001	x1 = 0.4983	x1 = 0.6013	x1 = 0.6999	x1 = 0.7996	x1 = 0.8959	x1 = 1
303.15 K	95	110	121	133	145	158	170	183	196	209
308.15 K	97	113	124	137	149	162	174	187	200	213
313.15 K	98	114	126	139	151	164	176	188	201	214
318.15 K	99	116	128	141	154	166	177	190	202	215
323.15 K	100	117	130	144	156	168	180	192	204	217
328.15 K	102	119	133	147	159	171	182	194	206	218
333.15 K	104	121	136	150	162	174	185	197	209	221
338.15 K	106	125	140	154	166	178	188	200	211	223
343.15 K	109	128	144	158	170	181	192	203	214	225
348.15 K	112	133	149	163	175	185	195	206	216	228
353.15 K	117	138	155	169	180	190	199	209	219	230

CN(C)CCO [2-(N,N-dimethylamino)ethanol] + O
molar heat capacity at constant pressure [J/K/mol]
Details	x1 = 0.0997	x1 = 0.1962	x1 = 0.3003	x1 = 0.3984	x1 = 0.4983	x1 = 0.6008	x1 = 0.698	x1 = 0.7981	x1 = 0.8938	x1 = 1
303.15 K	103	118	132	144	156	168	179	191	202	213
308.15 K	104	119	134	146	158	170	181	193	205	215
313.15 K	105	121	136	149	161	173	185	196	208	217
318.15 K	105	123	139	152	164	177	188	199	210	219
323.15 K	107	125	141	155	168	180	191	203	213	221
328.15 K	108	127	144	158	171	184	195	206	215	222
333.15 K	109	129	147	161	175	187	199	209	217	223
338.15 K	112	132	150	165	179	192	203	213	220	223
343.15 K	114	136	155	170	184	196	208	218	223	223
348.15 K	118	140	160	176	190	203	214	223	225	224
353.15 K	123	146	166	184	198	210	221	229	228	226
